Data: the METLIN SMRT retention time set (Domingo-Almenara et al. 2019)

Experiment: gradient 5% acetonitrile 3 min, to 50% in 2 min, to 85% in 15 min, held 3 min, 100 µL/min
Settings: column: Zorbax Extend-C18 2.1 x 50 mm; eluents: water / acetonitrile, 0.1% formic acid
In short: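 The system's dead and dwell volumes were 40 μL and 900 μL, with a Zorbax Extend-C18 column (2.1 × 50 mm, 1.8 μm) run at 100 μL/min in water and acetonitrile containing 0.1% formic acid each. Pure standards were analyzed in mixtures of ~100 molecules by HPLC–quadrupole time-of-flight mass spectrometry in positive and negative ionization mode. Retention time was assigned from computationally picked, manually inspected adduct peaks.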

SMILES | RP-LC retention time
COc1cccc(OC)c1-c1cc(C(=O)NC2(C(=O)O)C3CC4CC(C3)CC2C4)nn1-c1ccc(C(=O)N(C)CCCN(C)C)cc1C(C)C (stereo not drawn) | 860 s
CCS(=O)(=O)N1CCCc2cc(C(=O)NCCC3=CCCCC3)ccc21 | 987 s
CN(C)c1cccc(-c2nc(-c3ccc4nnn(C)c4c3)no2)c1 | 1070 s
CC(=O)N1CCc2cc(N3CC(C(=O)Nc4ccc(C)cc4C)CC3=O)ccc21 (stereo not drawn) | 786 s
CCc1cccc(NC(=O)C2CCCN(c3nnc(C)c4c(C)n(-c5ccccc5)nc34)C2)c1 (stereo not drawn) | 815 s
Cc1noc([C@@H]2CN(C(=O)Cc3c(C)noc3C)C[C@H]2C(N)=O)n1 | 593 s
COC(C)C(O)(C(=O)OCC1=CCN2CC[C@H](O)[C@@H]12)C(C)C (stereo partly drawn) | 644 s
COc1ccc(-c2noc(CN3N=NC4C(=O)N(c5ccc6c(c5)CCC6)C(=O)C43)n2)c(OC)c1 (stereo not drawn) | 959 s
Cc1noc(/C=C\c2ccc(S(=O)(=O)NC3CC3)cc2)c1NC(=O)C1CC1 | 766 s
CS(=O)(=O)NCCc1ccc(CC2CCN(S(=O)(=O)c3cccnc3)CC2)cc1 | 814 s
CC(C)C(=O)NCc1csc(C2CCCN(C(=O)C3CCCC3)C2)n1 (stereo not drawn) | 691 s
O=C(NC1CCN(c2ccccc2)C1=O)c1cccc(Br)c1 (stereo not drawn) | 855 s
CN(Cc1ccco1)C(=O)c1c2c(nc3ccccc13)C(=O)N(C1CCCCC1)C2 | 844 s
Cc1ccc2nc(NC(=O)Cc3csc4nc(-c5ccc(C)c(C)c5)cn34)sc2c1 | 953 s
O=C(CCC1CCN(c2cc(NC3CC3)ncn2)CC1)NCCc1cccs1 | 656 s
CC(C)(C)c1cc(C(=O)Nc2ccccc2F)nc2ccnn12 | 1380 s
CCOC(=O)c1cccc(NC(=O)Cc2csc3nc(-c4ccc(C)c(C)c4)cn23)c1 | 929 s
Cc1ccccc1OCC(=O)N1CC2CN(S(=O)(=O)c3ccc(F)cc3)CC(C1)O2 | 903 s
CC1CCCCN1S(=O)(=O)c1ccc(Cl)c(C(F)(F)F)c1 (stereo not drawn) | 1120 s
CCN(C(=O)Cc1csc2nc(-c3ccc(OC)c(OC)c3)cn12)c1ccccc1 | 772 s
COc1ccc(NC(=O)Cn2c(C)cc(-c3nnc(C4CCC4)o3)c2C)cc1F | 697 s
O=C(NCc1ccccc1)N1CCN(c2cnn3c(C4CC4)nnc3c2)CC1 | 578 s

SMILES | RP-LC retention time
COc1cccc(C(=O)NCC(=O)Nc2nc3ccccc3[nH]2)c1 | 624 s
c1nn2cnnc2cc1N1CCN(Cc2csc3c2CCCC3)CC1 | 609 s
CCn1cnc(S(=O)(=O)N2CCCC(C(=O)N3CCN(c4ccccn4)CC3)C2)c1 (stereo not drawn) | 575 s
Cc1ccc2nc(-c3ccccc3)c(Nc3ccc4c(c3)OCCO4)n2c1 | 697 s
COc1ccc(NC(=O)NC(C)C(=O)N2CCc3ccccc32)c(OC)c1 (stereo not drawn) | 859 s
O=C(Nc1cnn(-c2ncc(N3CCSCC3)cn2)c1)NC1CCCC1 | 848 s
CCOc1ccc(-c2cc3c(=O)n(Cc4nc(-c5ccc(Cl)cc5)no4)ncn3n2)cc1 | 1140 s
CCN1C(=O)c2cc(C(=O)Nc3cc(C)cc(C)c3)nn2CC1(C)C(=O)NC1CCCC1 (stereo not drawn) | 917 s
CCc1nn2c(CNC(=O)c3ccsc3)c(-c3ccccc3)nc2s1 | 854 s
COc1cccc(CNc2cc(-n3nc(C)cc3C)ncn2)c1 | 896 s
CCc1noc([C@@H]2CC(F)(F)CN2S(=O)(=O)c2cccnc2)n1 | 773 s
CCCn1c(=O)c2cc(C(=O)Nc3cc(Cl)ccc3F)nn2c2ccccc21 | 1220 s
COc1cccc(-n2c(=O)c(C(=O)Nc3ccccc3)c(O)c3cccnc32)c1 | 1220 s
O=C(Nc1c(-c2ccc(F)cc2)nc2ccccn12)C1CC1 | 578 s
Cc1cc2nc(C(=O)NC3CC3)c(=O)n(C)c2cc1C | 714 s
O=C(Nc1nc(-c2cccnc2)cs1)C(c1ccccc1)n1cccc1 (stereo not drawn) | 662 s
O=C(CCc1conc1-c1ccc(F)cc1)NC1CCN(Cc2ccccc2)CC1 | 657 s
Cc1ccc(C)c(NC(=O)N2CCCC2c2nncn2-c2ccccc2)c1 (stereo not drawn) | 729 s
CCOc1cc(C(=O)NC2CCN(c3cc(-c4ccc(Cl)cc4)[nH]n3)C2)cc(OCC)c1OCC (stereo not drawn) | 927 s
Cc1sc(C)c(S(=O)(=O)NCc2ccc3c(c2)OCO3)c1-c1cc(C(F)(F)F)on1 | 1120 s
O=C(Oc1cccnc1)c1cn(-c2ccc(Cl)cc2)c(=O)c2ccccc12 | 947 s
